Experimental data from PubChem BioAssay (NCI).
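Assay format: 96-well plates, 48-hour exposure. TGI marks complete inhibition of growth.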

Experiments:
Experiment in all cases: inhibition of tumour cell growth, NCI panel, 48 h
ACHN renal = system: ACHN renal
COLO 205 colon = system: COLO 205 colon
HOP-62 NSCLC = system: HOP-62 NSCLC
LOX IMVI melanoma = system: LOX IMVI melanoma
M14 melanoma = system: M14 melanoma
MALME-3M melanoma = system: MALME-3M melanoma
MCF7 breast = system: MCF7 breast
MDA-N = system: MDA-N
NCI-H226 lung = system: NCI-H226 lung
NCI-H460 lung = system: NCI-H460 lung
OVCAR-5 ovarian = system: OVCAR-5 ovarian
PC-3 prostate = system: PC-3 prostate
SK-MEL-28 melanoma = system: SK-MEL-28 melanoma
SK-OV-3 ovarian = system: SK-OV-3 ovarian
SN12C renal = system: SN12C renal
SW-620 colon = system: SW-620 colon
TK-10 renal = system: TK-10 renal
UACC-257 melanoma = system: UACC-257 melanoma
A498 renal = system: A498 renal
U251 CNS = system: U251 CNS

Row | Compound | TGI (ACHN renal) [µM] | TGI (COLO 205 colon) [µM] | TGI (HOP-62 NSCLC) [µM] | TGI (LOX IMVI melanoma) [µM] | TGI (M14 melanoma) [µM] | TGI (MALME-3M melanoma) [µM] | TGI (MCF7 breast) [µM] | TGI (MDA-N) [µM] | TGI (NCI-H226 lung) [µM] | TGI (NCI-H460 lung) [µM] | TGI (OVCAR-5 ovarian) [µM] | TGI (PC-3 prostate) [µM] | TGI (SK-MEL-28 melanoma) [µM] | TGI (SK-OV-3 ovarian) [µM] | TGI (SN12C renal) [µM] | TGI (SW-620 colon) [µM] | TGI (TK-10 renal) [µM] | TGI (UACC-257 melanoma) [µM] | TGI (A498 renal) [µM] | TGI (U251 CNS) [µM]
1 | O=C(CSC1=NNC2(C(=O)N1)c1ccccc1-c1ccccc12)NC(=S)Nc1ccccc1 | > 10 | > 10 | > 10 | > 10 | > 10 | > 10 | > 10 | > 10 | > 10 | > 10 | > 10 | > 10 | > 10 | > 10 | > 10 | > 10 | > 10 | > 10 | – | –
2 | C[C@]12CC[C@H](O)CC1=CC[C@@H]1C2CC[C@]2(C)Nc3c(cnn3-c3ccc(F)cc3)CC12 (stereo not given in full) | > 100 | – | 61.1 | > 100 | > 100 | > 100 | > 100 | > 100 | > 92.7 | > 100 | > 100 | > 100 | > 100 | 57.3 | > 100 | > 100 | > 100 | > 100 | > 47.6 | > 100
3 | COc1ccc(NC2CC(C)N(C(=O)c3ccccc3)O2)cc1 (stereo not given) | > 10 | > 10 | > 10 | > 10 | > 10 | > 10 | > 10 | > 10 | – | > 10 | > 10 | > 10 | > 10 | > 10 | > 10 | > 10 | > 10 | > 10 | – | –
4 | OC(C/C=N/Nc1ccccc1)(C(F)(F)Cl)C(F)(F)Cl | > 10 | > 10 | > 10 | > 10 | > 10 | > 10 | > 10 | > 10 | > 10 | > 10 | – | > 10 | > 10 | > 10 | > 10 | > 10 | > 10 | > 10 | > 10 | > 10
5 | CCOC(=O)C(=O)C(CCC(=O)c1ccc2ccccc2c1O)C(=O)OCC (stereo not given) | > 100 | > 100 | – | > 100 | > 100 | > 100 | > 100 | > 100 | > 100 | > 100 | > 100 | > 100 | > 100 | > 100 | > 100 | > 100 | – | > 100 | > 100 | > 100
6 | O=C(NNC(=O)c1ccccc1O)c1ccc(O)cc1 | – | > 100 | > 100 | > 100 | > 100 | > 100 | > 100 | > 100 | > 100 | > 100 | > 100 | > 100 | > 100 | > 100 | > 100 | > 100 | > 100 | > 100 | > 100 | > 100
